Test results as given in patent US6800761B1, “Form of irbesartan, methods for obtaining said form and pharmaceutical compositions containing same” (Sanofi-Synthelabo, priority 1998, dated 2004).
Like-named read-outs stand apart in the source and are kept apart here.

Assays:
[1] = for flowability index: Carr method: compressibility, angle of repose, spatula angle, cohesion
Description: The flowability index is calculated by the Carr method (R. Carr: Chemical Engineering, Jan. 18, 1965, page 163-168) and takes into account the results of four experimental values: compressibility, angle of repose, spatula angle and cohesion.

[2] = for packing density: Hosokawa machine, 180 gravity drops
[3] = as indicated in EP 708 103; cited from earlier work
[4] = brick habit versus acicular habit

| SMILES | flowability index ([1]; listed as crystals of acicular habit) | packing density ([2]; listed as crystals of the acicular form A) | stability and hygroscopicity of the crystals [3] | flowability index ([1]; listed as crystals of brick habit) | increase in the flowability index with respect to the acicular habit [1, 4] | packing density ([2]; listed as irbesartan crystals having the new crystal habit) | increase in the packing density with respect to the acicular habit [2, 4] |
| --- | --- | --- | --- | --- | --- | --- | --- |
| CCCCC1=NC2(CCCC2)C(=O)N1Cc1ccc(-c2ccccc2-c2nnn[nH]2)cc1 [crystals of irbesartan in acicular form A] [2-n-butyl-4-spirocyclopentane-1-[(2′-(tetrazol-5-yl)biphenyl-4-yl)methyl]-2-imidazolin-5-one, reference compound] | about 10 | about 0.35 kg/M^3 | stable, non-hygroscopic |  |  |  |  |
| CCCCC1=NC2(CCCC2)C(=O)N1Cc1ccc(-c2ccccc2-c2nnn[nH]2)cc1 [irbesartan crystals in the brick habit, 2-n-butyl-4-spirocyclopentane-1-[(2′-(tetrazol-5-yl)biphenyl-4-yl)methyl]-2-imidazolin-5-one] |  |  |  | about 30 | 50% | about 0.5 kg m^3 | 50% |
